The IC50 is the concentration that gives 50% inhibition. For orientation: inhibition means the share of the control response that was lost under treatment.

These results are taken from publication PMC12631437, “Evaluation of the Activity of 4‑Quinolones against Multi-Life Stages of Plasmodium spp” (ACS Omega, 2025).

Data set [1] deals with P. falciparum hepatic stages. The settings on record: cited from earlier work.
For a further data set, the system named is TM90C2B. The settings on record: strain TM90C2B; cited from earlier work.
Data set [2] deals with P. falciparum V1/S strain. As to the kind of experiment: microbe, parasite or virus in culture. As to conditions: Plasmodium falciparum, 72 h. Type of data set: cell-based, Plasmodium falciparum. On the procedure: (§1) Healthy blood samples for parasite culture were obtained from voluntary donors (approved under protocol #28176720.9.0000.0011), processed to remove white blood cells, and stored at 2 °C–8 °C for up to 15 days. Parasite strains SB1-A6, 7G8, V1/S, and HB3 were acquired from BEI-MR4, while the ATQ R1 strain, carrying a V259L gene mutation, was generated in-house. Infected erythrocytes were cultured in RPMI 1640 medium supplemented with Hepes, sodium bicarbonate, glucose, Albumax, and gentamicin, […], and incubated in a 5% CO2, 5% O2, and 90% N2 gas mixture at 37 °C with daily medium changes. Parasitemia was monitored using Giemsa-stained blood smears.
(§2) Bioassays were conducted with synchronized ring-stage parasites using sorbitol synchronization. Antimalarial compounds were evaluated in 96-well plates, and parasite growth was assessed using a SYBR Green-based fluorescence assay The assays were conducted when the parasite quantity reached at least 70% of the ring stage. Compounds were initially added at specific concentrations in the first wells, followed by serial dilution (1:2) ranging from 20 μM to 0.009 μM. Subsequently, a solution containing parasites in RPMI medium at a hematocrit of 2% was added to each well, and the parasites were then incubated for 72 h.
(§3) To assess parasite growth, the culture medium was replaced with a lysis solution (Trisbase: 49.31%, EDTA: 30.00%, Saponin: 0.16%, Triton: 0.02%) containing the fluorescent dye SYBR Green (Sigma). After a 30 min incubation, fluorescence readings were taken to determine the 50% inhibitory concentration (IC50) of parasite growth. The IC50 values were determined using concentration–response curves generated in GraphPad 8 software. Additionally, the resistance index was calculated by comparing IC50 values obtained for the sensitive 3D7 strain with those of the resistant strains.

Another data set has as its system P. falciparum 7G8 strain. As to the kind of experiment: SYBR Green growth assay, asexual blood stages, 7G8 strain. Type of data set: cell-based, Plasmodium falciparum. The settings on record: Plasmodium falciparum; 7G8 strain, 72 h; read-out: IC50. On the procedure:
as §1, §2, §3

Data set [3] concerns P. falciparum ATQ_R1 strain. As to the kind of experiment: SYBR Green growth assay, asexual blood stages, ATQ_R1 strain. Type of data set: cell-based, Plasmodium falciparum. As to conditions: Plasmodium falciparum, 72 h. The protocol: as §1, §2, §3
The subject of the next data set is HepG2 cells. As to the kind of experiment: Mitochondrial toxicity, HepG2 cells cultured in glucose or galactose (resazurin). The format is cell-based. The settings on record: HepG2 under either condition (glucose or galactose), 3.125–50 μM, 24 h. On the procedure:
To evaluate mitochondrial toxicity, HepG2 cells were cultured in RPMI-1640 medium under two metabolic conditions: one group was maintained in standard RPMI supplemented with 2 g/L glucose (glucose condition), while the second group was gradually adapted to rely on galactose as the primary energy source. For this adaptation, glucose levels were reduced by 20% every 2 days until reaching a final concentration of 20% of the original glucose amount. On the day of the assay, the […] cells were cultured in glucose-free RPMI medium supplemented with 10 mM galactose. When cells reached 80% confluence, they were detached using 2 mL of trypsin-EDTA solution (0.2 g of EDTA) for 5 min at 37 °C, then resuspended in fresh medium and centrifuged at 100 × g for 1 min. After centrifugation, cells were counted using a Neubauer chamber and seeded at […] per well in 96-well plates containing 180 μL of culture medium. Plates were incubated at 37 °C with 5% CO2 for 12–16 h to allow for cell adhesion. […] After treatment, 40 μL of a 0.15 mg/mL resazurin solution (RSZ) was added to each well and incubated for an additional 5 h. RSZ is a nontoxic, cell-permeable blue dye that is reduced by metabolically active cells to highly fluorescent pink resorufin. Fluorescence was measured using a fluorimeter with excitation/emission at 560/590 nm. Cell viability was calculated relative to untreated controls (set at 100%), determined using GraphPad Prism 8.

The subject of data set [4] is Plasmodium falciparum 3D7 sensitive strain. As to the kind of experiment: SYBR Green growth assay, asexual blood stages, 3D7 sensitive strain. The format is cell-based. The settings on record: Plasmodium falciparum, 3D7, 72 h, asexual blood stages, 3D7 sensitive strain, 72 h; read-out: IC50. On the procedure:
(§4) Parasite strains SB1-A6, 7G8, V1/S, and HB3 were acquired from BEI-MR4, while the ATQ R1 strain, carrying a V259L gene mutation, was generated in-house. […] Parasitemia was monitored using Giemsa-stained blood smears.
as §2
(§5) The IC50 values were determined using concentration–response curves generated in GraphPad 8 software. Additionally, the resistance index was calculated by comparing IC50 values obtained for the sensitive 3D7 strain with those of the resistant strains.

In a further data set the test system is P. vivax ookinetes. The data set can be described thus: Ex vivo P. vivax ookinete formation assay with patient isolates. The format is cell-based, Plasmodium vivax. The settings on record: Plasmodium vivax, 24 h, 10 μM, n = 6 patients, read-out: P. vivax ookinete formation inhibition (median). The protocol:
Participants were recruited from patients diagnosed with P. vivax malaria via Giemsa-stained blood smears at CEPEM in Porto Velho, Rondônia, Brazil (#28176720.9.0000.0011). Criteria included: P. vivax parasitemia >2000 parasites/μL, age 18–85, no severe malaria, no concomitant diseases, nonpregnant, and consent to study procedures. Approximately 10 mL of venous blood was collected into heparin-coated vials, maintained at 37 °C, and transported to PIVEM for DMFA. Malaria treatment followed Brazilian Ministry of Health guidelines and was unaffected by study participation. […] Erythrocytes were washed with incomplete RPMI-1640 medium by centrifugation at 1500 rpm for 10 min to remove leukocytes. […] The sample was centrifuged once at 450 g for 15 min without a brake. After centrifugation, the pellet remaining at the interface was collected and washed twice at 2000 g for 5 min. […] The parasites were incubated for 24 h at a temperature of 21–24 °C. After this period, the activity of the compounds was determined by microscopy, counting 100 fields to determine the parasitemia per μL in each sample, and counting the mature and immature ookinetes. […] Red blood cells were then washed with incomplete RPMI-1640 medium through centrifugation at 1500 rpm for 10 min to remove leukocytes. […] The sample was centrifuged once at 2000 rpm for 15 min without brake. After centrifugation, the remaining pellet at the interface was collected and washed twice at 2000 rpm for 5 min. […] Parasites were incubated for 24 h at a temperature of 21–24 °C. After this period, compound activity was determined by microscopy counting in 100 fields to determine parasitemia per μL in each sample.

The test system of another data set is P. falciparum HB3 strain. The data set can be described thus: SYBR Green growth assay, asexual blood stages, HB3 strain. Type of data set: cell-based, Plasmodium falciparum. The settings on record: Plasmodium falciparum; HB3 strain, 72 h; read-out: IC50. On the procedure: as §4, §2, §5
Data set [5] deals with P. falciparum SB1-A6 strain. The data set can be described thus: SYBR Green growth assay, asexual blood stages, SB1-A6 strain. As to conditions: Plasmodium falciparum, 72 h. Type of data set: cell-based, Plasmodium falciparum. The protocol:
as §1, §2, §3

The subject of a further data set is 164/GFP. As to conditions: strain 164/GFP; cited from earlier work.
In data set [6] the test system is P. falciparum oocysts in An. freeborni. Also noted: method as in Sáenz et al. As to conditions: early stage gametocyte treatments; ref Sáenz et al.; cited from earlier work.
Data set [7] concerns P. falciparum salivary gland infections in mosquitoes. Details: method as in Sáenz et al. As to conditions: drug-treated blood at 1 μM, compared to untreated control; ref Sáenz et al.; cited from earlier work.
In data set [8] the test system is P. falciparum oocyst development. Details: method as in PMID 12878530, PMID 17361016. The settings on record: studies primarily focused on P. falciparum; ref 27;28; cited from earlier work.

Values after ≈ are worked out from the molar mass of the structure shown. Bounds are passed on as bounds.

As for `N[C@@H]1[C@H]2CN(c3nc4c(cc3F)c(=O)c(C(=O)O)cn4-c3ccc(F)cc3F)C[C@@H]12` [trovafloxacin], in [1], the “IC50 P. falciparum hepatic stages” value was 21.6 ± 2.6 µg/mL (≈ 51.9 µM).

On to `CCCCCCCc1c(C)[nH]c2cc(F)cc(F)c2c1=O` [ELQ-121], for which the IC50 with TM90C2B was 1.7 nM.

As for `O=C1C(O)=C([C@H]2CC[C@H](c3ccc(Cl)cc3)CC2)C(=O)c2ccccc21` [Atovaquone, atovaquone, reference compound], the IC50 in data set [2] was 9 ± 0.8 nM; in the data set with P. falciparum 7G8 strain, 6 ± 4 nM; in [3], > 10 µM; in [4], 1 ± 0.4 nM; with P. falciparum HB3 strain it was 0.7 ± 0.4 nM; in data set [5], > 10 µM. Moreover, the cell survival in the data set on HepG2 cells is listed as ≥ 60%. Further, in the data set with P. vivax ookinetes, the inhibition at 10 µM turned out to be 97%.

In the case of `CCCCCCCCCCOc1cc2c(O)c(C(=O)OCC)cnc2cc1OCC` [Decoquinate], the IC50 in the data set with 164/GFP was 10 nM.

With `CCCCc1cc2c(=O)c(C(=O)OCC)c[nH]c2cc1OCCOc1ccccc1` [ICI 56.780], the “reduction in oocyst numbers” value in data set [6] is given as 100%. Moreover, the “reduction of salivary gland infections” value in [7] is reported as 80%.

For `CCCCN(CCCC)CCC(O)c1cc2c(Cl)cc(Cl)cc2c2cc(C(F)(F)F)ccc12` (stereo not shown) [halofantrine], the “concentration required to inhibit oocyst development” value in data set [8] was “around 10 μM”.

With `OC(c1cc(C(F)(F)F)nc2c(C(F)(F)F)cccc12)C1CCCCN1` (stereo not shown) [mefloquine], in data set [8], the “concentration required to inhibit oocyst development” value is recorded as “around 10 μM”.

Consider `Cc1c(F)c(N2CCNC(C)C2)cc2c1c(=O)c(C(=O)O)cn2C1CC1` (stereo not shown) [Grepafloxacin], for which the “IC50 P. falciparum hepatic stages” value in data set [1] was 5.0 ± 0.2 µg/mL (≈ 13.9 µM).
